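Method: 48-hour compound exposure of cells in 96-well plates, five concentrations, linear interpolation of endpoints. GI50 is the concentration that inhibits growth by half.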 The source made the active and inactive calls. No stated cut-off is given here; in the data, active = GI50 up to about 1.1 µM and inactive = higher.
How the values were obtained:
Experiment in all cases: DTP human tumour cell line panel, 48 h
[1] = tested on: K562
[2] = tested on: SK-MEL-28
[3] = tested on: SNB-75
[4] = tested on: ACHN
[5] = tested on: OVCAR-3
[6] = tested on: HCC 2998
[7] = tested on: CCRF-CEM
[8] = tested on: SK-OV-3
[9] = tested on: NCI-H23
[10] = tested on: NCI-H226
[11] = tested on: 786-0
[12] = tested on: PC-3
[13] = tested on: A549
[14] = tested on: OVCAR-4
[15] = tested on: SR
[16] = tested on: KM12
[17] = tested on: U-251
[18] = tested on: RPMI-8226
[19] = tested on: BT-549
[20] = tested on: UO-31
[21] = tested on: Hs-578T
[22] = tested on: UACC-257
[23] = tested on: MDA-N
[24] = tested on: NCI-H522
[25] = tested on: SW-620
[26] = tested on: OVCAR-8
[27] = tested on: SN12C
[28] = tested on: T47D
[29] = tested on: UACC-62
[30] = tested on: MOLT-4
[31] = tested on: Malme-3M
[32] = tested on: DU-145
[33] = tested on: CAKI-1
[34] = tested on: MDA-MB-231
[35] = tested on: SNB-19
[36] = tested on: HT-29
[37] = tested on: TK-10
[38] = tested on: SK-MEL-2
[39] = tested on: HCT-116
[40] = tested on: SF-295
[41] = tested on: MCF7
[42] = tested on: SF-539
[43] = tested on: HOP-62
[44] = tested on: SF-268
[45] = tested on: NCI/ADR-RES
[46] = tested on: EKVX
[47] = tested on: SK-MEL-5
[48] = tested on: RXF 393
[49] = tested on: HCT-15
[50] = tested on: MDA-MB-435
[51] = tested on: HL-60
[52] = tested on: NCI-H460
[53] = tested on: HOP-92
[54] = tested on: LOX IMVI
[55] = tested on: OVCAR-5
[56] = tested on: IGROV-1
[57] = tested on: A498
[58] = tested on: COLO 205
[59] = tested on: M14

COCOc1c(C(OCOC)c2cnc(Sc3ccccc3)n2C)ccc(OC)c1OC (stereo not given)
GI50 [1]: > 100 µM (inactive) | GI50 [2]: > 100 µM (inactive) | GI50 [3]: 35.3 µM (inactive) | GI50 [4]: > 100 µM (inactive) | GI50 [5]: > 100 µM (inactive) | GI50 [6]: > 100 µM (inactive) | GI50 [7]: > 100 µM (inactive) | GI50 [8]: > 100 µM (inactive) | GI50 [9]: > 100 µM (inactive) | GI50 [10]: 76.7 µM (inactive) | GI50 [11]: > 100 µM (inactive) | GI50 [12]: > 100 µM (inactive) | GI50 [13]: > 100 µM (inactive) | GI50 [14]: > 100 µM (inactive) | GI50 [15]: 52.5 µM (inactive) | GI50 [16]: > 100 µM (inactive) | GI50 [17]: > 100 µM (inactive) | GI50 [18]: 65 µM (inactive) | GI50 [19]: > 100 µM (inactive) | GI50 [20]: 73.6 µM (inactive) | GI50 [21]: 94.4 µM (inactive) | GI50 [22]: 63.2 µM (inactive) | GI50 [23]: > 100 µM (inactive) | GI50 [24]: 90.8 µM (inactive) | GI50 [25]: > 100 µM (inactive) | GI50 [26]: > 100 µM (inactive) | GI50 [27]: > 100 µM (inactive) | GI50 [28]: 82.2 µM (inactive) | GI50 [29]: > 100 µM (inactive) | GI50 [30]: 87.1 µM (inactive) | GI50 [31]: > 100 µM (inactive) | GI50 [32]: > 100 µM (inactive) | GI50 [33]: > 100 µM (inactive) | GI50 [34]: > 100 µM (inactive) | GI50 [35]: > 100 µM (inactive) | GI50 [36]: > 100 µM (inactive) | GI50 [37]: > 100 µM (inactive) | GI50 [38]: > 100 µM (inactive) | GI50 [39]: > 100 µM (inactive) | GI50 [40]: > 100 µM (inactive) | GI50 [41]: > 100 µM (inactive) | GI50 [42]: > 100 µM (inactive) | GI50 [43]: > 100 µM (inactive) | GI50 [44]: > 100 µM (inactive) | GI50 [45]: 94.4 µM (inactive) | GI50 [46]: > 100 µM (inactive) | GI50 [47]: 63.8 µM (inactive) | GI50 [48]: 83.4 µM (inactive) | GI50 [49]: > 100 µM | GI50 [50]: > 100 µM (inactive) | GI50 [51]: > 100 µM (inactive) | GI50 [52]: > 100 µM (inactive) | GI50 [53]: > 100 µM (inactive) | GI50 [54]: > 100 µM (inactive) | GI50 [55]: > 100 µM (inactive) | GI50 [56]: > 100 µM (inactive)

CN(C)Cc1cc(C(=O)/C=C/c2c(F)cccc2Cl)cc(CN(C)C)c1O
GI50 [1]: 4.09 µM (inactive) | GI50 [2]: 14.5 µM (inactive) | GI50 [3]: 8.53 µM (inactive) | GI50 [4]: 3.9 µM (inactive) | GI50 [5]: 9.18 µM (inactive) | GI50 [6]: 13.1 µM (inactive) | GI50 [7]: 5.13 µM (inactive) | GI50 [8]: 14.1 µM (inactive) | GI50 [57]: 6.5 µM (inactive) | GI50 [9]: 14.9 µM (inactive) | GI50 [10]: 13.5 µM (inactive) | GI50 [11]: 5.61 µM (inactive) | GI50 [12]: 13.7 µM (inactive) | GI50 [13]: 14.3 µM (inactive) | GI50 [14]: 15.2 µM (inactive) | GI50 [16]: 12.8 µM (inactive) | GI50 [17]: 10.8 µM (inactive) | GI50 [18]: 17.2 µM (inactive) | GI50 [19]: 8.2 µM (inactive) | GI50 [20]: 3.7 µM (inactive) | GI50 [21]: 17.5 µM (inactive) | GI50 [22]: 11.4 µM (inactive) | GI50 [58]: 10.8 µM (inactive) | GI50 [23]: 13 µM (inactive) | GI50 [25]: 9.57 µM (inactive) | GI50 [26]: 12.4 µM (inactive) | GI50 [27]: 4.57 µM (inactive) | GI50 [28]: 14.9 µM (inactive) | GI50 [29]: 12.3 µM (inactive) | GI50 [30]: 11.1 µM (inactive) | GI50 [31]: 11.8 µM (inactive) | GI50 [32]: 8.77 µM (inactive) | GI50 [33]: 11.5 µM (inactive) | GI50 [34]: 13.1 µM (inactive) | GI50 [35]: 18.1 µM (inactive) | GI50 [36]: 10.9 µM (inactive) | GI50 [37]: 3.04 µM (inactive) | GI50 [38]: 15.6 µM (inactive) | GI50 [39]: 4.48 µM (inactive) | GI50 [40]: 11.6 µM (inactive) | GI50 [41]: 3.03 µM (inactive) | GI50 [43]: 12 µM (inactive) | GI50 [44]: 10.1 µM (inactive) | GI50 [45]: 17 µM (inactive) | GI50 [59]: 13.2 µM (inactive) | GI50 [46]: 12.8 µM (inactive) | GI50 [47]: 15.3 µM (inactive) | GI50 [48]: 2.69 µM (inactive) | GI50 [49]: 4.34 µM | GI50 [50]: 13.8 µM (inactive) | GI50 [51]: 3.02 µM (inactive) | GI50 [52]: 2.37 µM (inactive) | GI50 [53]: 7.52 µM (inactive) | GI50 [54]: 4.83 µM (inactive) | GI50 [55]: 18.4 µM (inactive) | GI50 [56]: 5.47 µM (inactive)

CC1CCC2C(C(=O)O[C@H]3C4C=CO[C@@H](OC5OC(CO)C(O)C(O)C5O)C4[C@@]4(CO)O[C@@H]34)=CO[C@@H](OC3OC(CO)C(O)C(O)C3O)C12 (stereo not given in full)
GI50 [1]: > 10 µM (inactive) | GI50 [2]: > 10 µM (inactive) | GI50 [3]: > 10 µM (inactive) | GI50 [4]: > 10 µM (inactive) | GI50 [5]: > 10 µM (inactive) | GI50 [6]: > 10 µM (inactive) | GI50 [7]: > 10 µM (inactive) | GI50 [8]: > 10 µM (inactive) | GI50 [57]: > 10 µM (inactive) | GI50 [9]: > 10 µM (inactive) | GI50 [10]: > 10 µM (inactive) | GI50 [11]: > 10 µM (inactive) | GI50 [12]: > 10 µM (inactive) | GI50 [13]: > 10 µM (inactive) | GI50 [14]: > 10 µM (inactive) | GI50 [16]: > 10 µM (inactive) | GI50 [17]: > 10 µM (inactive) | GI50 [18]: > 10 µM (inactive) | GI50 [19]: > 10 µM (inactive) | GI50 [20]: > 10 µM (inactive) | GI50 [21]: > 10 µM (inactive) | GI50 [22]: > 10 µM (inactive) | GI50 [58]: > 10 µM (inactive) | GI50 [23]: > 10 µM (inactive) | GI50 [24]: > 10 µM (inactive) | GI50 [25]: > 10 µM (inactive) | GI50 [26]: > 10 µM (inactive) | GI50 [27]: > 10 µM (inactive) | GI50 [28]: > 10 µM (inactive) | GI50 [29]: > 10 µM (inactive) | GI50 [30]: > 10 µM (inactive) | GI50 [31]: > 10 µM (inactive) | GI50 [32]: > 10 µM (inactive) | GI50 [33]: > 10 µM (inactive) | GI50 [34]: > 10 µM (inactive) | GI50 [35]: > 10 µM (inactive) | GI50 [36]: > 10 µM (inactive) | GI50 [37]: > 10 µM (inactive) | GI50 [38]: > 10 µM (inactive) | GI50 [39]: > 10 µM (inactive) | GI50 [40]: > 10 µM (inactive) | GI50 [41]: > 10 µM (inactive) | GI50 [42]: > 10 µM (inactive) | GI50 [43]: > 10 µM (inactive) | GI50 [44]: > 10 µM (inactive) | GI50 [45]: > 10 µM (inactive) | GI50 [59]: > 10 µM (inactive) | GI50 [46]: > 10 µM (inactive) | GI50 [47]: > 10 µM (inactive) | GI50 [48]: > 10 µM (inactive) | GI50 [49]: > 10 µM | GI50 [50]: > 10 µM (inactive) | GI50 [51]: > 10 µM (inactive) | GI50 [52]: > 10 µM (inactive) | GI50 [53]: > 10 µM (inactive) | GI50 [54]: > 10 µM (inactive) | GI50 [55]: > 10 µM (inactive) | GI50 [56]: > 10 µM (inactive)
